In US9956187B2 (priority 2014, dated 2018):
Structures can show the parent of a compound that is named as a salt.

How the values were obtained:
5-HT1A = target: T1, 5-HT1A (Homo sapiens, UniProt P08908); test: Primary radioligand binding screen
T1 construct: expressed in transfected cells
Experimental: (§1) Evidence for interaction was based on the inhibition of the reference ligand-binding signal. […] Briefly, 50 μL aliquots of radioactive ligand (5 nM) were added to wells of a 96-well plate, which contained 25 μL of the reference or test ligands. We employed transfected cell lines expressing mainly human (unless otherwise specified) recombinant receptors, monoamine transporters, or ion channels for crude membrane preparation. Detailed information about our membrane preparation is well known in the art and can be obtained from publicly available protocol online. Crude membrane fractions containing the receptors were resuspended in standard binding buffer and 50 μL aliquots added to each well. The reactions were incubated at room temperature for 1.5 hours to allow for radioligand binding equilibration. Bound radioactivity was harvested by rapid filtration through a 0.3% polyethyleneimine-treated, 96-well filter mats using a 96-well Filtermate harvester. The dried filters were treated with melted scintillant and a Microbeta scintillation counter was utilized to measure the radioactivity retained on the filter.

5-HT1B = target: T2, 5-HT1B (Homo sapiens, UniProt P28222); test: Primary radioligand binding screen
T2 construct: expressed in transfected cells
Experimental: as §1

5-HT1D = target: T3, 5-HT1D (Homo sapiens, UniProt P28221); test: Primary radioligand binding screen
T3 construct: expressed in transfected cells
T3 sequence (P28221 whole entry): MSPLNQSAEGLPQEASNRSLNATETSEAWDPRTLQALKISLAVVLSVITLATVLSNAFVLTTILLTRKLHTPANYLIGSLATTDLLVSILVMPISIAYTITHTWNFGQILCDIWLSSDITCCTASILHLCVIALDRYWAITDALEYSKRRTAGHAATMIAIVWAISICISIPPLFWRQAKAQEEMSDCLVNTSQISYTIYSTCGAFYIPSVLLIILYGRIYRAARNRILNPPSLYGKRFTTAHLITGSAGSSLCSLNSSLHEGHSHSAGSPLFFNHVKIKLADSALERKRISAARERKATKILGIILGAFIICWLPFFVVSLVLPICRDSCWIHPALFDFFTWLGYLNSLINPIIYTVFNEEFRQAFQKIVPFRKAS
Experimental: as §1

5-HT1E = target: T4, 5-HT1E (Homo sapiens, UniProt P28566); test: Primary radioligand binding screen
T4 construct: expressed in transfected cells
Experimental: as §1

5-HT2A = target: T5, 5-HT2A (Homo sapiens, UniProt P28223); test: Primary radioligand binding screen
T5 construct: expressed in transfected cells
T5 sequence (P28223 whole entry): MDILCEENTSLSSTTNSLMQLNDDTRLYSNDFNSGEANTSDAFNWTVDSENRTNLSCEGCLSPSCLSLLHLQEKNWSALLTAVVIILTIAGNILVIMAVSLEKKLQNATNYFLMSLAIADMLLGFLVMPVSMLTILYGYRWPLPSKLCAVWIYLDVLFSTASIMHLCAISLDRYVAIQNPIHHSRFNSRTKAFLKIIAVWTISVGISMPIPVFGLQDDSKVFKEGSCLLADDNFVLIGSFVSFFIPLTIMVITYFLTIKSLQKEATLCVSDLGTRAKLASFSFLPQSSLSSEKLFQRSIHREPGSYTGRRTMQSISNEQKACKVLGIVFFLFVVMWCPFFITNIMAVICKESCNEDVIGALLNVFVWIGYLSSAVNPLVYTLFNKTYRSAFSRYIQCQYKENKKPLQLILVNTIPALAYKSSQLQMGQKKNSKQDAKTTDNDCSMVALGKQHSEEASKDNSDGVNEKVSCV
Experimental: as §1

5-HT2C = target: T6, 5-HT2C (Homo sapiens, UniProt P28335); test: Primary radioligand binding screen
T6 construct: expressed in transfected cells
Experimental: as §1

5-HT3 = target: T7, 5-HT3 (Homo sapiens, UniProt P46098); test: Primary radioligand binding screen
T7 construct: expressed in transfected cells
Experimental: as §1

5-HT7 = target: T8, 5-HT7 (Homo sapiens, UniProt P34969); test: Primary radioligand binding screen
T8 construct: expressed in transfected cells
T8 sequence (P34969 whole entry): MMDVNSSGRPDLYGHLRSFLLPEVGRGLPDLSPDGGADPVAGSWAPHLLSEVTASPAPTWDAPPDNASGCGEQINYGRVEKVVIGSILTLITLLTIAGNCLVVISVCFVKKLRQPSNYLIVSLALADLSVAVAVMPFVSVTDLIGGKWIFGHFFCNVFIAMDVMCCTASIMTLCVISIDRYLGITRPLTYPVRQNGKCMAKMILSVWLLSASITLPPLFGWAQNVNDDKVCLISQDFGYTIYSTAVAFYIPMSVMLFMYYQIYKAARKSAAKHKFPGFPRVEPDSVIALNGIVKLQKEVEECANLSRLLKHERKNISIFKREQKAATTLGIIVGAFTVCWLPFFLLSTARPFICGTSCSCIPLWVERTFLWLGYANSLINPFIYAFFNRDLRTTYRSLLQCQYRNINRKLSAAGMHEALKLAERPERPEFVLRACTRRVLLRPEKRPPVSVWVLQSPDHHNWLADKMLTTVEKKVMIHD
Experimental: as §1

5-hT5A = target: T9, 5-hT5A (Homo sapiens, UniProt P47898); test: Primary radioligand binding screen
T9 construct: expressed in transfected cells
T9 sequence (P47898 whole entry): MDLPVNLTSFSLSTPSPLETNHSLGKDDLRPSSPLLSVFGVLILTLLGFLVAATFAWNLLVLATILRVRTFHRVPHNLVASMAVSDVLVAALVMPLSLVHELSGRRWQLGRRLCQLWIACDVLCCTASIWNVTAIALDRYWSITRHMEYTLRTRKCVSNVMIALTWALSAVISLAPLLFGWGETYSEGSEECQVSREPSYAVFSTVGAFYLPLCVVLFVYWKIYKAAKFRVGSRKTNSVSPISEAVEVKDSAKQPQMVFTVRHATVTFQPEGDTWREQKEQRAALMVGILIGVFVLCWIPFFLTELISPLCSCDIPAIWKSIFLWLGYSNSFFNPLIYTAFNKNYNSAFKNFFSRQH
Experimental: as §1

Alpha1B = target: T10, Alpha1B (Homo sapiens, UniProt P35368); test: Primary radioligand binding screen
T10 construct: expressed in transfected cells
Experimental: as §1

Alpha1D = target: T11, Alpha1D (Homo sapiens, UniProt P25100); test: Primary radioligand binding screen
T11 construct: expressed in transfected cells
T11 sequence (P25100 whole entry): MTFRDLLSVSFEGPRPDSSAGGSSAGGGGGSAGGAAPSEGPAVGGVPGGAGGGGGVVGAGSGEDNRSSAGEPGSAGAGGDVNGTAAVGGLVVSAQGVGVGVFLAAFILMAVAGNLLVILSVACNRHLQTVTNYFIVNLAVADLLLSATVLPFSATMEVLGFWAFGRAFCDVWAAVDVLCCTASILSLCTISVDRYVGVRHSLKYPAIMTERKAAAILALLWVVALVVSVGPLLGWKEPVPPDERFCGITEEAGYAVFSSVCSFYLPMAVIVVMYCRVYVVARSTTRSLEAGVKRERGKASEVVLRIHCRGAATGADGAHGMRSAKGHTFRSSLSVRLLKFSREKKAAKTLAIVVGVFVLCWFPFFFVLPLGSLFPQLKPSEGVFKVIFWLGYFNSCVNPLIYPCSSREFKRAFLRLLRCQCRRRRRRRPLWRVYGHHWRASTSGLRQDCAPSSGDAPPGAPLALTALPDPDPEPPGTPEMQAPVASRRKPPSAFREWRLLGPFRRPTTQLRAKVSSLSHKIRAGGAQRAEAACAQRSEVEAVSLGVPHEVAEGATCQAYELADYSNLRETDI
Experimental: as §1

Alpha2B = target: T12, Alpha2B (Homo sapiens, UniProt P18089); test: Primary radioligand binding screen
T12 construct: expressed in transfected cells
T12 sequence (P18089 whole entry): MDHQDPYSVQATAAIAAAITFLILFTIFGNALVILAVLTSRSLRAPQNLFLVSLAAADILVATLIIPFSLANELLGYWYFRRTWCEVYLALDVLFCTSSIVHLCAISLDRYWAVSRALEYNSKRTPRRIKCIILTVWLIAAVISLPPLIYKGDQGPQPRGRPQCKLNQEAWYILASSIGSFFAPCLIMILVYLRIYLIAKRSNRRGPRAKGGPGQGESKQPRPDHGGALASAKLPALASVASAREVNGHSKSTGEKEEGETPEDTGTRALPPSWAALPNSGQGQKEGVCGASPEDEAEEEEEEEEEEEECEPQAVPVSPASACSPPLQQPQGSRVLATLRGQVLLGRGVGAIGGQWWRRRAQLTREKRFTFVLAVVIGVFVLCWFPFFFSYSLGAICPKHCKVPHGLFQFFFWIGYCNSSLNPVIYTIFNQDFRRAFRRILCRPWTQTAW
Experimental: as §1

Beta1 = target: T13, Beta1 (Homo sapiens, UniProt P08588); test: Primary radioligand binding screen
T13 construct: expressed in transfected cells
T13 sequence (P08588 whole entry): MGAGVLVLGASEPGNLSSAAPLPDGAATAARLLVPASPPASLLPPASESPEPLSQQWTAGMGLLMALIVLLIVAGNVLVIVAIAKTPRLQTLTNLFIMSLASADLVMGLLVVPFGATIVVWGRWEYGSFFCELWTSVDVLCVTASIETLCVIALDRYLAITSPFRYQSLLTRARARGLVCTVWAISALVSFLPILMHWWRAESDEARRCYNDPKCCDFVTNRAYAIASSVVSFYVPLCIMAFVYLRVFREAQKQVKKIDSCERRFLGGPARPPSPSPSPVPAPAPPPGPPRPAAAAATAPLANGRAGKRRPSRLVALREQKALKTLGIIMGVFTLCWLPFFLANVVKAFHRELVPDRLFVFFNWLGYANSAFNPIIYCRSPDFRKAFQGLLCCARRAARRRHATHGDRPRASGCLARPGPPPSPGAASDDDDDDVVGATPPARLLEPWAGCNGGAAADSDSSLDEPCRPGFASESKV
Experimental: as §1

Beta2 = target: T14, Beta2 (Homo sapiens, UniProt P07550); test: Primary radioligand binding screen
T14 construct: expressed in transfected cells
T14 sequence (P07550 whole entry): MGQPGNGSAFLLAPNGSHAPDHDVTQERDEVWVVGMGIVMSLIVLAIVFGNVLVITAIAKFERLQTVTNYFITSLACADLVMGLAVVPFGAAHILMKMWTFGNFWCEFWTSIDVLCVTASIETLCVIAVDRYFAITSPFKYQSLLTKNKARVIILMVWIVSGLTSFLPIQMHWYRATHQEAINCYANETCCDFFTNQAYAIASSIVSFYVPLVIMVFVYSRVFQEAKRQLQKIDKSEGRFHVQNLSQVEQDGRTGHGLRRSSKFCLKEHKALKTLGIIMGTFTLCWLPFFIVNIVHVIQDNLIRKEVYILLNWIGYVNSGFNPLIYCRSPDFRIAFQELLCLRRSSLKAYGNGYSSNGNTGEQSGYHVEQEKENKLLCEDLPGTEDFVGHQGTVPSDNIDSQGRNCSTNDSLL
Experimental: as §1

D1 = target: T15, D1 (Homo sapiens, UniProt P21728); test: Primary radioligand binding screen
T15 construct: expressed in transfected cells
T15 sequence (P21728 whole entry): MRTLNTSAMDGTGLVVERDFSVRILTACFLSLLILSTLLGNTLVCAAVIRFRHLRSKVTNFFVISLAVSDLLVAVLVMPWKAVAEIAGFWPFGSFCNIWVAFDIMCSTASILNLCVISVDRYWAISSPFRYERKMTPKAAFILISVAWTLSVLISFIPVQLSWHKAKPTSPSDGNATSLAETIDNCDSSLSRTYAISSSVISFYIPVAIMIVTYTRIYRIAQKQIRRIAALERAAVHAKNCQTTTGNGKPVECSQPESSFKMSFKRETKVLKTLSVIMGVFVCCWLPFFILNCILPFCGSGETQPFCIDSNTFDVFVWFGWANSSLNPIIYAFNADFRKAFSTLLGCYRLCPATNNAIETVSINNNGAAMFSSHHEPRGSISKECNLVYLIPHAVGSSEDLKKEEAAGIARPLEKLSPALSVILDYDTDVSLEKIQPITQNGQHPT
Experimental: as §1

D3 = target: T16, D3 (Homo sapiens, UniProt P35462); test: Primary radioligand binding screen
T16 construct: expressed in transfected cells
Experimental: as §1

D4 = target: T17, D4 (Homo sapiens, UniProt P21917); test: Primary radioligand binding screen
T17 construct: expressed in transfected cells
Experimental: as §1

DAT = target: T18, DAT (Homo sapiens, UniProt Q01959); test: Primary radioligand binding screen
T18 construct: expressed in transfected cells
Experimental: as §1

DOR = target: T19, DOR (Homo sapiens, UniProt P41143); test: Primary radioligand binding screen
T19 construct: expressed in transfected cells
T19 sequence (P41143 whole entry): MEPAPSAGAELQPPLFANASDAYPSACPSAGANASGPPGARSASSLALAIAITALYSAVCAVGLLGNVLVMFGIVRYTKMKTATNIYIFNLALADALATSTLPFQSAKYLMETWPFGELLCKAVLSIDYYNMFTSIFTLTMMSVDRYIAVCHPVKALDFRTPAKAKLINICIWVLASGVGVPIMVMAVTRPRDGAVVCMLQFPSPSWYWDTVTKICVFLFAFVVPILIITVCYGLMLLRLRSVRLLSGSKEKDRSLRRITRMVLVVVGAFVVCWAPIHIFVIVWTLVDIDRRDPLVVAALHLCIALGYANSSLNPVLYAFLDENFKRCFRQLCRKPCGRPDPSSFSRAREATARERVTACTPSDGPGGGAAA
Experimental: as §1

H2 = target: T20, H2 (Homo sapiens, UniProt P25021); test: Primary radioligand binding screen
T20 construct: expressed in transfected cells
Experimental: as §1

M1 = target: T21, M1 (Homo sapiens, UniProt P11229); test: Primary radioligand binding screen
T21 construct: expressed in transfected cells
Experimental: as §1

M2 = target: T22, M2 (Homo sapiens, UniProt P08172); test: Primary radioligand binding screen
T22 construct: expressed in transfected cells
Experimental: as §1

M5 = target: T23, M5 (Homo sapiens, UniProt P08912); test: Primary radioligand binding screen
T23 construct: expressed in transfected cells
T23 sequence (P08912 whole entry): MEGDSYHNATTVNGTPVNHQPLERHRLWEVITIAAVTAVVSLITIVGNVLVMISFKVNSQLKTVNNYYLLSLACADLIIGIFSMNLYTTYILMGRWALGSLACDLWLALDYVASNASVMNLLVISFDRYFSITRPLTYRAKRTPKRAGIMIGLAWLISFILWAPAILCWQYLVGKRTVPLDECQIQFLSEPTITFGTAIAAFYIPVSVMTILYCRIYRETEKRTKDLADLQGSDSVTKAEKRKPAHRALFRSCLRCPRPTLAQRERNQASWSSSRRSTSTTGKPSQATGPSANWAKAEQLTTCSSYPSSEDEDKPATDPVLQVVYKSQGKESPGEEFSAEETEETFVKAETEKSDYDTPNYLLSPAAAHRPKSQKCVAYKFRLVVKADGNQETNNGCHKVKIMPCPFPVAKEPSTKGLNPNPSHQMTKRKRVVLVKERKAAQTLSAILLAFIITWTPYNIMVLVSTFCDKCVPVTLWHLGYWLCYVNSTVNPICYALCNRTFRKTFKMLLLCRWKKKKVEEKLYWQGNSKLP
Experimental: as §1

NET = target: T24, NET (Homo sapiens, UniProt P23975); test: Primary radioligand binding screen
T24 construct: expressed in transfected cells
Experimental: as §1

Sigma 2 = Sigma 2 (Rattus norvegicus, UniProt Q5U3Y7); test: Primary radioligand binding screen
Experimental: as §1

BZP Rat Brain Site = conditions: primary binding, dezocine 10 μM
Experimental: as §1

GABAA = test: Primary radioligand binding screen; design: species or system human; conditions: dezocine 10 μM
Experimental: as §1

human cloned NET = target: T25, human cloned NET (Homo sapiens, UniProt P23975); test: Norepinephrine reuptake assay in HEK 293 cells; assay type: cell-based; conditions: mean±SE
T25 construct: expressed in transfected cells
Experimental: In brief, Human Embryonic Kidney 293 cells were plated in Poly-L-Lys (PLL) coated 384-well black clear bottom cell culture plates in DMEM+1% dFBS, at a density of 15,000 cells per well in a total volume of 40 μl. The cells were incubated for a minimum of 6 hours before use in the assays. The medium was removed and 20 μL of assay buffer (20 mM HEPES, 1×HBSS, pH 7.40) was added, followed by 5 μL of 5× drug solutions. The plate was incubated at 37° C. for 30 min. After the incubation, 25 μL of dye solution was added and fluorescence intensity was measured after […] at 37° C., using FlexStation II (bottom read mode, Excitation at 440 nm, Emission at 520 nm with 510 nm cut-off) from the Molecular Devices. […] The half maximal inhibitory concentration were determined and expressed as pIC50 (pIC50=−log (IC50)).

morphine dependent rats = test: Astrocyte activation in nucleus accumbens; assay type: in vivo, rat
Sigma 1 [1] = target: T26, Sigma 1 (Homo sapiens, UniProt Q99720); test: Molecular target profiling; assay type: binding
Sigma 1 [2] = target: T26, Sigma 1; test: Primary radioligand binding screen; design: expressed in transfected cells
Experimental: as §1

kappa opioid receptor = kappa opioid receptor (Homo sapiens, UniProt P41145); assay type: binding; design: expressed in transfected cells; conditions: mean±SE; read-out: Ki KOR
Experimental: The secondary binding assay was performed only when the inhibition in the primary screen was over 50%. A secondary binding assay was utilized to determine the binding affinity for the identified receptor.
50 μL of a crude membrane fraction of cells expressing the respective receptors were applied to each well. Reaction incubation, harvesting and radioactivity measurement from the primary assay were repeated. Affinity is expressed as pKi (−log Ki).

Compound: C[C@@]12CCCCC[C@@H](Cc3ccc(O)cc31)[C@@H]2N [Dezocine, (−)-13β-amino-5,6,7,8,9,10,11,12-octahydro-5α-methyl-5,11-methanobenxocyclodecen-31-ol, hydrobromide]
- inhibition at 10 µM (5-HT1A): 43.5%
- inhibition at 10 µM (5-HT1B): -14.1%
- inhibition at 10 µM (5-HT1D): -0.4%
- inhibition at 10 µM (5-HT1E): -2.4%
- inhibition at 10 µM (5-HT2A): -10%
- inhibition at 10 µM (5-HT2C): 19.8%
- inhibition at 10 µM (5-HT3): 11.8%
- inhibition at 10 µM (5-HT7): 20.9%
- inhibition at 10 µM (5-hT5A): 3.4%
- inhibition at 10 µM (Alpha1B): 14.7%
- inhibition at 10 µM (Alpha1D): 8.9%
- inhibition at 10 µM (Alpha2B): 21.2%
- inhibition at 10 µM (Beta1): 10%
- inhibition at 10 µM (Beta2): -4.5%
- inhibition at 10 µM (D1): 11.5%
- inhibition at 10 µM (D3): -9.4%
- inhibition at 10 µM (D4): -5.1%
- inhibition at 10 µM (DAT): 15.8%
- inhibition at 10 µM (DOR): 58.5%
- inhibition at 10 µM (H2): 33.6%
- inhibition at 10 µM (M1): -6.8%
- inhibition at 10 µM (M2): 31.5%
- inhibition at 10 µM (M5): 19.4%
- inhibition at 10 µM (NET): 86.4%
- inhibition at 10 µM (Sigma 2): 6.3%
- % inhibition (BZP Rat Brain Site): 11.5%
- % inhibition (GABAA): −10.1%
- pIC50 at NET (norepinephrine reuptake) (human cloned NET): 5.68±0.11
- astrocyte activation in nucleus accumbens (morphine dependent rats): significantly inhibited
- interaction with sigma 1 receptor (Sigma 1 [1]): interact with sigma 1 receptor
- inhibition at 10 µM (Sigma 1 [2]): 21.7%
- Ki (kappa opioid receptor): 31.9 ± 1.9 nM
